Test results from US20240336613A1, “HETEROARYL COMPOUNDS FOR TREATING HUNTINGTON'S DISEASE” (PTC THERAPEUTICS, INC., priority 2021, published 2024).
Where two headings read alike, the source gives them in different places.

System: Huntingtin protein (HTT)
Assay: Endogenous Huntingtin Protein Assay (MSD electrochemiluminescence)
Assay type: cell-based
Details: for IC50: read-out: IC50
Method: Compounds of Formula (I) were tested using the Meso Scale Discovery (MSD) Assay provided in International Application No. PCT/US2016/066042, filed on Dec. 11, 2016 and claiming priority to United States Provisional Application U.S. 62/265,652 filed on Dec. 10, 2015, the entire contents of which are incorporated herein by reference.
The Endogenous Huntingtin Protein assay used in Example 1 was developed using the ELISA-based MSD electrochemiluminescence assay platform.
Meso Scale Discovery (MSD) 96-well or 384-well plates were coated overnight at 4° C. with MW1 (expanded polyglutamine) or MAB2166 monoclonal antibody (for capture) at a concentration of 1 μg/mL in PBS (30 μL per well). Plates were then washed three times with 300 μL wash buffer (0.05% Tween-20 in PBS) and blocked (100 μL blocking buffer; 5% BSA in PBS) for 4-5 hours at room temperature with rotational shaking and then washed three times with wash buffer.
Samples (25 μL) were transferred to the antibody-coated MSD plate and incubated overnight at 4° C. After removal of the lysates, the plate was washed three times with wash buffer, and 25 μL of #5656S (Cell signaling; rabbit monoclonal) secondary antibody (diluted to 0.25 μg/mL in 0.05% Tween-20 in blocking buffer) was added to each well and incubated with shaking for 1 Hour at room temperature. Following incubation with the secondary antibody, the wells were rinsed with wash buffer after which 25 μL of goat anti-rabbit SULFO TAG secondary detection antibody (required aspect of the MSD system) (diluted to 0.25 μg/mL in 0.05% Tween-20 in blocking buffer) was added to each well and incubated with shaking for 1 hour at room temperature. After rinsing three times with wash buffer, 150 μL of read buffer T with surfactant (MSD) were added to each empty well, and the plate was imaged on a SI 6000 imager (MSD) according to manufacturers' instructions provided for 96- or 384-well plates.

SMILES	IC50 (Table 1, Endogenous Huntingtin Protein Assay)	potency comparison, 1H-pyrazole moiety replaced with 1H-1,2,3-triazole moiety (Cpd 72 compared with Cpd 7 in WO2020/005873)	IC50 (Table 2, comparison compounds tested according to the assay of Example 1)
CC1(C)C[C@H](n2ccc3cc(-c4c(O)cc(-n5ccnn5)cc4F)nnc32)[C@H](F)C(C)(C)N1 [Cpd 27, 3-fluoro-2-{7-[(3S,4S)-3-fluoro-2,2,6,6-tetramethylpiperidin-4-yl]-7H-pyrrolo[2,3-c]pyridazin-3-yl}-5-(1H-1,2,3-triazol-1-yl)phenol]	< 100 nM		
CC1(C)CC(n2nnc3cc(-c4ccc(-n5ccnn5)cc4O)nnc32)CC(C)(C)N1 [Cpd 72 in WO2020/005873, reference compound]		significant loss in potency	179 nM
